For 47 compounds, IC50 results are on record in US11591336B2 (Relay Therapeutics, Inc., priority 2017, dated 2023).

Usually IC50 stands for the point on the concentration scale where inhibition reaches its midpoint. Low readings indicate greater potency in that assay, high ones weaker potency in that assay.

Structures can show the parent of a compound that is named as a salt.

The target of the test is SHP2 (Homo sapiens (Human), UniProt Q06124). In words: SHP2 Allosteric Inhibition Assay (DiFMUP prompt fluorescence). The format is biochemical. The note with it: 0.25 nM SHP2 activated with 0.5 μM peptide IRS1_pY1172(dPEG8)pY1222; substrate DiFMUP 100 μM; 25° C.
Chain of SHP2 (Q06124 whole entry): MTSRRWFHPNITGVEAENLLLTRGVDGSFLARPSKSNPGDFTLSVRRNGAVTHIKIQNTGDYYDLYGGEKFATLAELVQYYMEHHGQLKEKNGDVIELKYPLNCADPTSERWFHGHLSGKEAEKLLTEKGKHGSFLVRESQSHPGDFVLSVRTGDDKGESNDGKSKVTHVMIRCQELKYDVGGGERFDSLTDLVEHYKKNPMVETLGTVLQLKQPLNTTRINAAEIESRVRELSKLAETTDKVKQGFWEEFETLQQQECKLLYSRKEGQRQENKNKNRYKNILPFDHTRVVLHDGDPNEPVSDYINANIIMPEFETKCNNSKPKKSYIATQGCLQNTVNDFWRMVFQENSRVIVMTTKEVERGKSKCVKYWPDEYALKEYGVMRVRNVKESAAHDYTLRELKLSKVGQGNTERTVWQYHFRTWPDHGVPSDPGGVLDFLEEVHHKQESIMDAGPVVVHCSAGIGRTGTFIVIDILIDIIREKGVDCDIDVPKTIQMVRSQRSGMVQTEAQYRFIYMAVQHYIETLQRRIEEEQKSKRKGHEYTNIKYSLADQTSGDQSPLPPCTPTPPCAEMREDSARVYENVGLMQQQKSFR
As for `CC(=O)N(C)Cc1cccc2c1CCCN2c1n[nH]c2nc(N3CCC4(CC3)CO[C@@H](C)[C@H]4N)cnc12` [Compound 466], the IC50 was < 1 µM.

In turn, `Cc1ccc2c(c1)N(c1n[nH]c3nc(N4CCC(C)(CN)CC4)cnc13)CCC2` [Compound 44] had an IC50 of 1 to 10 µM.

Regarding `CO/N=C/c1ccc2c(c1)[C@@H](C)CCN2c1n[nH]c2nc(N3CCC4(CC3)CO[C@@H](C)[C@H]4N)cnc12` [Compound 426, (3S,4S)-8-{3-[(4S)-6-[(1E)-(methoxyimino)methyl]-4-methyl-1,2,3,4-tetrahydroquinolin-1-yl]-1H-pyrazolo[3,4-b]pyrazin-6-yl}-3-methyl-2-oxa-8-azaspiro[4.5]decan-4-amine], the half-maximal inhibitory concentration (IC50) is < 1 µM.

`CC1(N)CCN(c2cnc3c(N4CCCc5c(-c6ccccn6)cccc54)n[nH]c3n2)CC1` [Compound 59]: the IC50 is < 1 µM.

For the compound `C[C@@H]1OCC2(CCN(c3cnc4c(N5CCNc6cc(-c7ccnnc7)ccc65)n[nH]c4n3)CC2)[C@@H]1N` [Compound 332], the IC50 is < 1 µM.

For `C[C@@H]1CCN(c2n[nH]c3nc(N4CCC5(CC4)CO[C@@H](C)[C@H]5N)cnc23)c2ccc(-c3ccn[nH]3)nc21` [Compound 432], the IC50 is < 1 µM.

`Cc1ccnc2c1N(c1n[nH]c3nc(N4CCC(C)(CN)CC4)cnc13)CCC2` [Compound 90] gave an IC50 of 1 to 10 µM.

Consider `C[C@@H]1OCC2(CCN(c3cnc4c(N5CCCc6c5ccnc6-c5nccs5)n[nH]c4n3)CC2)[C@@H]1N` [Compound 424], for which the IC50 is < 1 µM.

`C[C@@H]1CCc2ccccc2N1c1n[nH]c2nc(N3CCC(C)(N)CC3)cnc12` [Compound 36] returned an IC50 of 1 to 10 µM.

On to `C[C@@H]1OCC2(CCN(c3cnc4c(N5CCNc6cc(-c7cnn(C)c7)ccc65)n[nH]c4n3)CC2)[C@@H]1N` [Compound 316, (3S,4S)-3-methyl-8-{3-[6-(1-methyl-1H-pyrazol-4-yl)-1,2,3,4-tetrahydroquinoxalin-1-yl]-1H-pyrazolo[3,4-b]pyrazin-6-yl}-2-oxa-8-azaspiro[4.5]decan-4-amine], for which the IC50 is < 1 µM.

Compound `CC(c1ccccc1)c1n[nH]c2nc(N3CCC(C)(CN)CC3)cnc12` (centres unmarked) [Compound 17, (4-methyl-1-(3-(1-phenylethyl)-1H-pyrazolo[3,4-b]pyrazin-6-yl)piperidin-4-yl)methanamine] registered an IC50 of 1 to 10 µM.

As to `CC1(CN)CCN(c2cnc3c(N4CCC(c5ccccc5)c5ccccc54)n[nH]c3n2)CC1` (centres unmarked) [Compound 96], the IC50 is < 1 µM.

On to `Cn1cc(-c2ccc3c(n2)OCCN3c2n[nH]c3nc(N4CCC(C)(CN)CC4)cnc23)cn1` [Compound 188], for which the IC50 was < 1 µM.

Consider `C[C@@H]1OCC2(CCN(c3cnc4c(N5CCCc6nc(-c7ccnn7C)ccc65)n[nH]c4n3)CC2)[C@@H]1N` [Compound 255, (3S,4S)-3-methyl-8-{3-[6-(1-methyl-1H-pyrazol-5-yl)-1,2,3,4-tetrahydro-1,5-naphthyridin-1-yl]-1H-pyrazolo[3,4-b]pyrazin-6-yl}-2-oxa-8-azaspiro[4.5]decan-4-amine hydrochloride], for which the IC50 is < 1 µM.

Consider `Cn1cc(-c2cccc3c2CCCN3c2n[nH]c3nc(N4CCC(C)(CN)CC4)cnc23)cn1` [Compound 121], for which the IC50 is < 1 µM.

Regarding `C[C@@H]1OCC2(CCN(c3cnc4c(N5CCc6cccc(-c7cnn(C)c7)c6C5)n[nH]c4n3)CC2)[C@@H]1N` [Compound 358], the IC50 was ≥ 10 µM.

With `CCC(=O)N1CCN(c2n[nH]c3nc(N4CCC5(CC4)CO[C@@H](C)[C@H]5N)cnc23)c2ccccc21` [Compound 360], the IC50 was < 1 µM.

Turning to `C[C@@H]1CCN(c2n[nH]c3nc(N4CCC(C)(CN)CC4)cnc23)c2ccccc21` [Compound 49, (R)-(4-methyl-1-(3-(4-methyl-3,4-dihydroquinolin-1(2H)-yl)-1H-pyrazolo[3,4-b]pyrazin-6-yl)piperidin-4-yl)methanamine], the IC50 is < 1 µM.

Turning to `c1ccc(CC2CCCN(c3cnc4c(N5CCCc6ncccc65)n[nH]c4n3)C2)cc1` (centres unmarked) [Compound 139], the IC50 was < 1 µM.

As for `Cc1nccc2c1CCCN2c1n[nH]c2nc(N3CCC4(CC3)CO[C@@H](C)[C@H]4N)cnc12` [Compound 233], the IC50 was < 1 µM.

With `CC1(CN)CCN(c2cnc3c(N4CCCc5cc(C(F)(F)F)ccc54)n[nH]c3n2)CC1` [Compound 63], the IC50 is < 1 µM.

For the compound `CNC(=O)CN1CCN(c2n[nH]c3nc(N4CCC5(CC4)CO[C@@H](C)[C@H]5N)cnc23)c2ccc(C#N)cc21` [Compound 399], the IC50 was < 1 µM.

Turning to `CC1(CO)CCN(c2cnc3c(N4CCCc5ncccc54)n[nH]c3n2)CC1` [Compound 145], the IC50 is ≥ 10 µM.

Turning to `CC1(CN)CCN(c2cnc3c(Sc4ccccc4)n[nH]c3n2)CC1` [Compound 7, (4-methyl-1-(3-(phenylthio)-1H-pyrazolo[3,4-b]pyrazin-6-yl)piperidin-4-yl)methanamine], the IC50 was < 1 µM.

Consider `NCC1(F)CCN(c2cnc3c(Sc4ccccc4Cl)n[nH]c3n2)CC1` [Compound 485, (1-(3-((2-chlorophenyl)thio)-1H-pyrazolo[3,4-b]pyrazin-6-yl)-4-fluoropiperidin-4-yl)methanamine], for which the IC50 was < 1 µM.

For the compound `C[C@@H]1OCC2(CCN(c3cnc4c(N5CCN(C)c6cc(-c7ncco7)ccc65)n[nH]c4n3)CC2)[C@@H]1N` [Compound 395], the IC50 was < 1 µM.

Turning to `C[C@@H]1OCC2(CCN(c3cnc4c(N5CCN([C@H]6C[C@@H](O)C6)c6cc(C#N)ccc65)n[nH]c4n3)CC2)[C@@H]1N` [Compound 412], the IC50 is < 1 µM.

With `CC1(CN)CCN(c2cnc3c(Sc4ccnc5[nH]ccc45)n[nH]c3n2)CC1` [Compound 515, (1-(3-((1H-pyrrolo[2,3-b]pyridin-4-yl)thio)-1H-pyrazolo[3,4-b]pyrazin-6-yl)-4-methylpiperidin-4-yl)methanamine], the IC50 was < 1 µM.

Take `CC1CCCCN1c1cnc2c(N3CCCc4ncccc43)n[nH]c2n1` (centres unmarked) [Compound 148]: the IC50 was ≥ 10 µM.

On to `CC1(CN)CCN(c2cnc3c(N4CCCc5nc(N)ccc54)n[nH]c3n2)CC1` [Compound 51, 5-(6-(4-(aminomethyl)-4-methylpiperidin-1-yl)-1H-pyrazolo[3,4-b]pyrazin-3-yl)-5,6,7,8-tetrahydro-1,5-naphthyridin-2-amine], for which the IC50 was < 1 µM.

Consider `C[C@@H]1OCC2(CCN(c3cnc4c(N5CC[C@H](C)c6nc(C(=O)NCc7cccnc7)ccc65)n[nH]c4n3)CC2)[C@@H]1N` [Compound 445], for which the IC50 is < 1 µM.

For `C[C@@H]1OCC2(CCN(c3cnc4c(N5CC[C@H](C)c6nc(-c7ccn[nH]7)ccc65)n[nH]c4n3)CC2)[C@@H]1N` [Compound 430, (3S,4S)-3-methyl-8-{3-[(4S)-4-methyl-6-(1H-pyrazol-5-yl)-1,2,3,4-tetrahydro-1,5-naphthyridin-1-yl]-1H-pyrazolo[3,4-b]pyrazin-6-yl}-2-oxa-8-azaspiro[4.5]decan-4-amine], the IC50 was < 1 µM.

For `C[C@@H]1OCC2(CCN(c3cnc4c(N5CCCc6c5ccc(C#N)c6C5CC5)n[nH]c4n3)CC2)[C@@H]1N` [Compound 207], the IC50 is < 1 µM.

Take `CC1(CN)CCN(c2cnc3c(N4CCCc5c(C#N)cccc54)n[nH]c3n2)CC1` [Compound 87]: the IC50 is < 1 µM.

`c1ccc(C2CCCN2c2cnc3c(N4CCCc5ncccc54)n[nH]c3n2)cc1` (centres unmarked) [Compound 147]: the IC50 was ≥ 10 µM.

On to `C[C@@H]1OCC2(CCN(c3cnc4c(N5CCCc6nc(C7CCOCC7)ccc65)n[nH]c4n3)CC2)[C@@H]1N` [Compound 239], for which the IC50 is < 1 µM.

With `C[C@@H]1OCC2(CCN(c3cnc4c(N5CC(=O)N(C)c6cc(C#N)ccc65)n[nH]c4n3)CC2)[C@@H]1N` [Compound 275, 1-{6-[(3S,4S)-4-amino-3-methyl-2-oxa-8-azaspiro[4.5]decan-8-yl]-1H-pyrazolo[3,4-b]pyrazin-3-yl}-4-methyl-3-oxo-1,2,3,4-tetrahydroquinoxaline-6-carbonitrile], the IC50 is < 1 µM.

Turning to `COCCS(=O)(=O)c1cccc2c1CCCN2c1n[nH]c2nc(N3CCC4(CC3)CO[C@@H](C)[C@H]4N)cnc12` [Compound 460], the concentration for half-maximal inhibition (IC50) was < 1 µM.

As for `c1cnc2c(c1)N(c1n[nH]c3nc(N4CCCCC4)cnc13)CCC2` [Compound 155], the IC50 was ≥ 10 µM.

As for `C[C@@H]1OCC2(CCN(c3cnc4c(N5CCCc6nc(-c7ccn(C)n7)ccc65)n[nH]c4n3)CC2)[C@@H]1N` [Compound 280, (3S,4S)-3-methyl-8-{3-[6-(1-methyl-1H-pyrazol-3-yl)-1,2,3,4-tetrahydro-1,5-naphthyridin-1-yl]-1H-pyrazolo[3,4-b]pyrazin-6-yl}-2-oxa-8-azaspiro[4.5]decan-4-amine], the IC50 is < 1 µM.

In the case of `C[C@@H]1OCC2(CCN(c3cnc4c(N5CC(=O)Nc6cnccc65)n[nH]c4n3)CC2)[C@@H]1N` [Compound 241], the IC50 was < 1 µM.

Consider `Cc1nnc(-c2c(Cl)ccc3c2CCCN3c2n[nH]c3nc(N4CCC5(CC4)CO[C@@H](C)[C@H]5N)cnc23)o1` [Compound 429, (3S,4S)-8-{3-[6-chloro-5-(5-methyl-1,3,4-oxadiazol-2-yl)-1,2,3,4-tetrahydroquinolin-1-yl]-1H-pyrazolo[3,4-b]pyrazin-6-yl}-3-methyl-2-oxa-8-azaspiro[4.5]decan-4-amine], for which the IC50 was < 1 µM.

In the case of `CC1Cc2ccccc2N(c2n[nH]c3nc(N4CCC(C)(N)CC4)cnc23)C1` (centres unmarked) [Compound 38], the IC50 lay in the range of 1 to 10 µM.

In the case of `C[C@@H]1C[C@H](CN)CCN1c1cnc2c(N3CCCc4ncccc43)n[nH]c2n1` (racemic) [Compound 109, ((2R,4R)-1-(3-(3,4-dihydro-1,5-naphthyridin-1(2H)-yl)-1H-pyrazolo[3,4-b]pyrazin-6-yl)-2-methylpiperidin-4-yl)methanamine], the IC50 is 1 to 10 µM.

Turning to `C[C@@H]1OCC2(CCN(c3cnc4c(N5CCCc6nc(Oc7cnn(C)c7)ccc65)n[nH]c4n3)CC2)[C@@H]1N` [Compound 314], the IC50 is < 1 µM.

As for `CC1(N)CCN(c2cnc3c(N4CCNc5ccccc54)n[nH]c3n2)CC1` [Compound 29], the IC50 fell in the range of 1 to 10 µM.

For `C[C@@H]1CCN(c2n[nH]c3nc(N4CCC5(CC4)CO[C@@H](C)[C@H]5N)cnc23)c2ccc(-c3nnc[nH]3)nc21` [Compound 452, dihydrochloride], the IC50 is < 1 µM.
